# Experiments:
# plasma estradiol = assay: Plasma estradiol concentration (radioimmunoassay) in treated heifers; type: in vivo, cattle (Hereford-cross beef heifers)
# Method: (§1) Heifers in which a CL was detected were given two luteolytic doses of PGF (12 h apart) and monitored by ultrasonography for ovulation. Five to eight days later, the two largest ovarian follicles were ablated by transvaginal ultrasound-guided follicular aspiration to synchronize follicular wave emergence which was expected to occur 1 to 1.5 days later. Prostaglandin (500 μg cloprostenol, Estrumate, Schering-Plough Animal Health, Pointe-Claire, QC, Canada) was given intramuscularly at 60 and 72 h after follicular ablation to induce regression of the CL and shift from a non-ovulatory to an ovulatory follicular wave. […] Devices were inserted on Day 1 and were kept in place until Day 7 or until ovulation was detected, which ever occurred first. […]
# Plasma concentrations of estradiol were determined using a commercial radioimmunoassay kit (Double Antibody Estradiol; Diagnostic Products Corp., Los Angeles, CA, USA). […]
# Statistical analyses were done using the Statistical Analysis System software package (SAS Learning Edition 9.1, 2006; SAS Institute Inc., Cary, NC, USA). Time-series data (hormone concentrations, follicle and CL diameter profiles) were analyzed by repeated measures using the PROC MIXED procedure. […]
# plasma progesterone = assay: Plasma progesterone concentration (radioimmunoassay) after post-treatment ovulation; type: in vivo, cattle (Hereford-cross beef heifers); conditions: first 12 days post-ovulation, n=15, P=0.01
# Method: as §1
# Plasma progesterone concentrations were determined in duplicate using a commercial solid-phase radioimmunoassay kit (Coat-A-Count; Diagnostic Products Corporation, Los Angeles, CA, USA). […] All samples were analyzed in a single assay; the intra-assay coefficients of variation were 9.7% and 5.8 % for low- (mean, 1.7 ng/mL) and high-reference samples (mean, 18.7 ng/mL), respectively. […]
smiles,measurement,setting,value
N#Cc1ccc(C(c2ccc(C#N)cc2)n2cncn2)cc1 [Letrozole],Delay of preovulatory rise in estradiol versus control,plasma estradiol; n=15,24 h
same,Plasma estradiol concentrations versus control,"plasma estradiol; n=15, P=0.04",lower
same,Plasma progesterone concentrations versus control,plasma progesterone,higher
